Test results taken from publication PMC5829251, “NAD^+ analog reveals PARP-1 substrate-blocking mechanism and allosteric communication from catalytic center to DNA-binding domains” (Nature Communications, 2018).

Tests used:
full-length PARP-1 = biological target: T1, full-length PARP-1 (Homo sapiens, UniProt P09874); assay: Colorimetric assay of full-length PARP-1 DNA-dependent activity; type: biochemical; details: 20 nM PARP-1, 40 nM DNA, 50 μM NAD+
T1 construct: Full-length PARP-1 WT (residues 1–1014) was cloned in pET28 vector; made in house; host or cells: E. coli
Method: The colorimetric assay was performed as described, [28] using 20 nM of protein and 40 nM DNA (18-bp duplex). A mixture of NAD^+ and biotinylated NAD^+ (bio-NAD^+) was used at a 99:1 ratio and a final concentration of 50 µM. Reactions were allowed to proceed for 5 min before quenching. Three independent experiments were performed.

PARP-1 CAT domain WT = biological target: T2, PARP-1 CAT domain WT (Homo sapiens, UniProt P09874); assay: Differential scanning fluorimetry (DSF), PARP-1 CAT WT; type: binding; details: for TM: Figure 1e, CAT WT 5 μM, TM without compound 51.58, in °C (unit assumed)
T2 construct: The PARP-1 CAT WT (residues 661–1014) was cloned in pET28 vector; made in house; host or cells: E. coli
Method: (§1) DSF experiments were performed as described, [13] using 5 µM protein, 2.5 µM DNA when indicated and various concentrations of compound (BAD, carba-NAD^+, benzamide, and ADP-ribose) as indicated in Fig. 1 and Fig. 3. Experiments were performed on a Roche LightCycler 480 RT-PCR. Reactions including DNA were performed with a 26- or 28-base pair (bp) unphosphorylated oligonucleotide for PARP-1, a 28-bp 5´-phosphorylated (5´P) oligonucleotide for PARP-2, and a 47-bp oligonucleotide including a central 5´P nick for PARP-3^13 in the following buffer: 25 mM Hepes pH 8.0, 150 mM NaCl, 1 mM EDTA, and 0.1 mM TCEP. Reactions with PARP-3 were conducted at lower ionic strength to allow binding to DNA as described (25 mM Hepes pH 8.0, 50 mM NaCl, 1 mM EDTA and 0.1 mM TCEP)[13]. ΔTM values were calculated by subtracting the TM determined for the protein in the absence of compound from the TM determined in the presence of compound. Experiments were performed in triplicate and a Boltzmann sigmoid was fit to the data to determine the TM values (KaleidaGraph).

PARP-1 CAT ΔHD = biological target: T3, PARP-1 CAT ΔHD (Homo sapiens, UniProt P09874); assay: DSF, PARP-1 CAT ΔHD; type: binding; details: for TM: Figure 1e, CAT ΔHD 5 μM, TM without compound 41.26, in °C (unit assumed)
T3 construct: a pET28 construct coding for PARP-1 residues 661-1011; made in house; host or cells: E. coli
Method: as §1

[1] = 5 μM protein, various amounts of compound

T2 sequence (P09874 661-1014): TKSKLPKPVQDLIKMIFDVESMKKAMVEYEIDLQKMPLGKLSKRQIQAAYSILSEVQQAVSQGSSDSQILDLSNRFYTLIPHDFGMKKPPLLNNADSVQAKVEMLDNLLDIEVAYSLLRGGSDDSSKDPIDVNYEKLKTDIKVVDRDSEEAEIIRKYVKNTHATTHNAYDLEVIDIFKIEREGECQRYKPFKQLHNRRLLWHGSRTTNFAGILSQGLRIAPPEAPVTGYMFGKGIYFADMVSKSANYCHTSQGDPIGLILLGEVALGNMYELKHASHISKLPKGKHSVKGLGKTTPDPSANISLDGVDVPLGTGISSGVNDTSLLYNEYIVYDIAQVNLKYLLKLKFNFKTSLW
T3 sequence (P09874 with tags, fused parts or gaps): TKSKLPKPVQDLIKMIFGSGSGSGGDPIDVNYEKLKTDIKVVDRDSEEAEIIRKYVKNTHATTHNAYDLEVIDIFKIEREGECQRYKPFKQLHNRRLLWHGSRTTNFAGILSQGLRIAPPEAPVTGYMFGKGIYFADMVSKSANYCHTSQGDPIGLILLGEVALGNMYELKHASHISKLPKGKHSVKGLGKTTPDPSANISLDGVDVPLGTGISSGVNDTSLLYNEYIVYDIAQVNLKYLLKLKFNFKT
T1 sequence (P09874 whole entry, the tested form may be a part): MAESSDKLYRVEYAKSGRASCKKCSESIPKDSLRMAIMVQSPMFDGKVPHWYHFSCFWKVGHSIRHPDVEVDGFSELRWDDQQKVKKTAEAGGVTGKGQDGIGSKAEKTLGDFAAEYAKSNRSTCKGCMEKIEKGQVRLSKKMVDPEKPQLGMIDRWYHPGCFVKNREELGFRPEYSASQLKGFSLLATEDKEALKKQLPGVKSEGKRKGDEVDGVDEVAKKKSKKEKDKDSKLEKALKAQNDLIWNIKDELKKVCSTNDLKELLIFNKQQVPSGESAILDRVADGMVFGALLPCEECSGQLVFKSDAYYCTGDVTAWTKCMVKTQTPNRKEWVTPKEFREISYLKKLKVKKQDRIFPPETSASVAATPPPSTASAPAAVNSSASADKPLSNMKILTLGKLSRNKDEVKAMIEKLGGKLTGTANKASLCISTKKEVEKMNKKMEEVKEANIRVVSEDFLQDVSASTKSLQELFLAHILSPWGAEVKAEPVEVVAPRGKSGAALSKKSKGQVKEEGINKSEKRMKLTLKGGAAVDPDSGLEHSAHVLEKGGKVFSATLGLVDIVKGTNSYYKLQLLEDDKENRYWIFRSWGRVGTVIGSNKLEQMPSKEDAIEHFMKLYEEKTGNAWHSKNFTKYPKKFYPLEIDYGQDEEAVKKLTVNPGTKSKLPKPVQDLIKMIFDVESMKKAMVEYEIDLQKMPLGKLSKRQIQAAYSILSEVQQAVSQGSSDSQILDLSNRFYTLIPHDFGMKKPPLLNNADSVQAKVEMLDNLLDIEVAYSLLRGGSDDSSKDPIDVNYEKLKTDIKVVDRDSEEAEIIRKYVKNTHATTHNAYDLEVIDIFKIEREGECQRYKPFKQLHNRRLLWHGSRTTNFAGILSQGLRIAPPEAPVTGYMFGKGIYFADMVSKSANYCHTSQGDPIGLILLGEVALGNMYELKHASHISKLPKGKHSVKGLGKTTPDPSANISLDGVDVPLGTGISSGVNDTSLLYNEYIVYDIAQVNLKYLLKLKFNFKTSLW

Compound: Nc1ncnc2c1ncn2C1OC(COP(=O)(O)OP(=O)(O)OCC2OC(O)C(O)C2O)C(O)C1O (centres unmarked) [ADP-ribose]
- inhibition of DNA damage-dependent activity of full-length PARP-1 (full-length PARP-1): does not inhibit the reaction
- change of apparent TM of PARP-1 CAT WT (evidence of binding) (PARP-1 CAT domain WT; [1]): no evidence of binding
- TM (PARP-1 CAT domain WT; compound 25 µM): 51.52
- TM (PARP-1 CAT domain WT; compound 150 µM): 51.61
- TM (PARP-1 CAT domain WT; compound 750 µM): 51.56
- TM (PARP-1 CAT domain WT; compound 1500 µM): 51.53
- change of TM of CAT ΔHD (evidence of binding) (PARP-1 CAT ΔHD; [1]): no evidence of binding
- TM (PARP-1 CAT ΔHD; compound 25 µM): 41.46
- TM (PARP-1 CAT ΔHD; compound 150 µM): 41.57
- TM (PARP-1 CAT ΔHD; compound 750 µM): 41.43
- TM (PARP-1 CAT ΔHD; compound 1500 µM): 41.68
